According to US20140090094A1, “MODULATORS OF SLC22A7” (BAYER INTELLECTUAL PROPERTY GmbH, priority 2011, published 2014):
Where “and” joins values, the source holds several entries; their conditions need not be identical. Equal entries are not always repeated.

How the values were obtained:
Type in all cases: cell-based
[1] = target: T1, OAT2r (Rattus norvegicus, UniProt Q5RLM2); assay: 1 min uptake into 293 cells expressing OAT2 from rat; settings: for clearance: 1 min uptake, 0.1 μmol/l radiotracer; for uptake after preloading with orotic acid (factor f): 1 h preincubation ±100 μmol/l unlabeled orotic acid, 3H-orotic acid 0.1 μmol/l 1 min, trigonelline 10 μmol/l 5 min;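 for all read-outs here: uptake at 37 °C, read by liquid scintillation counting or LC-ESI-MS/MS, carrier-mediated part as induced-minus-uninduced expression difference corrected for baseline content, protein by BCA assay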
T1 construct: expressed in transfected cells
T1 sequence (Q5RLM2 1-535): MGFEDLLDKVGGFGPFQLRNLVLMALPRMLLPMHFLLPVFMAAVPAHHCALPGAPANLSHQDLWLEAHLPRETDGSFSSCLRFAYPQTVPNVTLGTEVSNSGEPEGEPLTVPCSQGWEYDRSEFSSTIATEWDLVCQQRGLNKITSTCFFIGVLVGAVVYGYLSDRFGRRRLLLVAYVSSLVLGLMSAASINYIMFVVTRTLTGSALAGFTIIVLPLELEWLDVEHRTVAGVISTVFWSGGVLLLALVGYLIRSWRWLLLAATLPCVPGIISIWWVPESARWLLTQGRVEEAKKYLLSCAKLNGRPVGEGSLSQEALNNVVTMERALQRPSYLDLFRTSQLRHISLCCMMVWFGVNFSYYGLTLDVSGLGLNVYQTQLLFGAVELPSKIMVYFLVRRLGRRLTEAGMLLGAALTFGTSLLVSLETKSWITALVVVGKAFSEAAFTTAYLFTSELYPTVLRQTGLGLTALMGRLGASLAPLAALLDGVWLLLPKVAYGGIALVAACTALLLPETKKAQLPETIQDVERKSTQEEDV
Method: Cells were used for uptake experiments at a confluence of at least 70%. Uptake was measured at 37° C. […] After preincubation for at least 20 minutes in 4 ml of uptake buffer, the buffer was replaced with 2 ml of substrate in uptake buffer. The total substrate concentration if not indicated otherwise was 0.1 μmol/l for radiotracer assays and 10 μmol/l for unlabeled compounds. Incubation was stopped after 1 min by rinsing the cells four times each with 4 ml ice-cold uptake buffer. Radioactivity was determined, after cell lysis with 0.1% v/v Triton X-100 in 5 mmol/l TRIS-HCl pH 7.4, by liquid scintillation counting. For LCelectrospray ionization-MS/MS analysis, cells were lysed with methanol and stored at −20° C.
After centrifugation (1 min, 16000×g, 20° C.) of thawed lysates, 100 μl of the supernatant was mixed with either 10 μl unlabeled MPP+ iodide (0.5 ng/μl) or biphenyl-4-carboxylic acid (Sigma-Aldrich) as internal standard. […] Atmospheric pressure ionization with positive or negative electrospray was used. For quantification (scan time 150 ms), the optimal collision energy for argon-induced fragmentation in the second quadrupole was determined for each analyte. […] Linear calibration curves were constructed from at least six standards which were prepared using control cell lysates as solvent. Sample analyte content was calculated from the analyte response ratio and the slope of the calibration curve, obtained by linear regression. With LC-MS quantitation, solute content of cell lysates was determined for 4 conditions (paired dishes, incubation time 1 min): a) transporter expression on, uptake buffer; b) expression off, uptake buffer; c) expression on, substrate in uptake buffer; d) expression off, substrate in uptake buffer. Acute uptake mediated by heterologously expressed carrier was then calculated as (c−a)−(d−b). This approach takes into account endogenous solute content and non-specific uptake. Protein was measured by the BCA assay (Pierce) with bovine serum albumin as standard. The protein content of MS samples was estimated from 3 matched cell dishes.

[2] = target: T2, OAT1h (Homo sapiens, UniProt Q4U2R8); assay: uptake/accumulation in 293 cells expressing OAT1h; settings: for clearance: 1 min uptake, 0.1 μmol/l radiotracer
T2 construct: expressed in transfected cells; host or cells: 293 cells (HEK-293), pEBTetD plasmid, doxycycline-inducible
T2 sequence (Q4U2R8 1-550 isoform Q4U2R8-2): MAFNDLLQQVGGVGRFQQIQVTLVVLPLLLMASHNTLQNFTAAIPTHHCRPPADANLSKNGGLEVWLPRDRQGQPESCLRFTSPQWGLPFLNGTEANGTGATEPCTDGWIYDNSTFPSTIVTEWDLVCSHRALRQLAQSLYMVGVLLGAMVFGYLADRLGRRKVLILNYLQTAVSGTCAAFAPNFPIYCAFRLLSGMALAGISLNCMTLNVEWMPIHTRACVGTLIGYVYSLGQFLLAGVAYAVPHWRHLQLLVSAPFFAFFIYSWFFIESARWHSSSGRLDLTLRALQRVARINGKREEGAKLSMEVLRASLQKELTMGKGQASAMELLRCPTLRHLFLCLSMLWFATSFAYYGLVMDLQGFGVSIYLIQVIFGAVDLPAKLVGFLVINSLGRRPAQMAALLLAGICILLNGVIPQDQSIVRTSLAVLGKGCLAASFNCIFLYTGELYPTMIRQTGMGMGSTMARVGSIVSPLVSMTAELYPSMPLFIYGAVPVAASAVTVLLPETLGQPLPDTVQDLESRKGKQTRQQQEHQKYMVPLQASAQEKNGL
Method: (§1) The trigonelline content of cell lysates was determined by LC-MS/MS. […] 293 cells transfected with pEBTetD plasmids for the expression of SLC22 family carriers as indicated were grown in dishes and incubated overnight with (expression on) or without (off) doxycyclin in standard culture medium. Cells were washed with uptake buffer, incubated (1 min, 37° C.) in uptake buffer with or without 10 μmol/l unlabeled trigonelline, washed, and lysed.
(§2) For measurement of solute uptake, cells were grown in surface culture on 60 mm polystyrol dishes (Nunclon 150288, Nunc, Roskilde, Denmark) precoated with 0.1 g/l poly-L-ornithine in 0.15 M boric acid-NaOH, pH 8.4. Cells were used for uptake experiments at a confluence of at least 70%. Uptake was measured at 37° C. Uptake buffer contains 125 mmol/l NaCl, 25 mmol/l HEPES-NaOH pH 7.4, 5.6 mmol/l (+)glucose, 4.8 mmol/l KCl, 1.2 mmol/l KH2PO4, 1.2 mmol/l CaCl2, and 1.2 mmol/l MgSO4. In glutamate efflux experiments, uptake buffer without KH2PO4 was used to avoid MS interference. After preincubation for at least 20 minutes in 4 ml of uptake buffer, the buffer was replaced with 2 ml of substrate in uptake buffer. The total substrate concentration if not indicated otherwise was 0.1 μmol/l for radiotracer assays and 10 μmol/l for unlabeled compounds. Incubation was stopped after 1 min by rinsing the cells four times each with 4 ml ice-cold uptake buffer. Radioactivity was determined, after cell lysis with 0.1% v/v Triton X-100 in 5 mmol/l TRIS-HCl pH 7.4, by liquid scintillation counting. For LCelectrospray ionization-MS/MS analysis, cells were lysed with methanol and stored at −20° C.
(§3) After centrifugation (1 min, 16000×g, 20° C.) of thawed lysates, 100 μl of the supernatant was mixed with either 10 μl unlabeled MPP+ iodide (0.5 ng/μl) or biphenyl-4-carboxylic acid (Sigma-Aldrich) as internal standard. Of this mixture, […] were analyzed by LCMS/MS on a triple quadrupole mass spectrometer (4000 Q TRAP, Applied Biosystems, Darmstadt, Germany). […] For quantification (scan time 150 ms), the optimal collision energy for argon-induced fragmentation in the second quadrupole was determined for each analyte. […] Sample analyte content was calculated from the analyte response ratio and the slope of the calibration curve, obtained by linear regression. With LC-MS quantitation, solute content of cell lysates was determined for 4 conditions (paired dishes, incubation time 1 min): a) transporter expression on, uptake buffer; b) expression off, uptake buffer; c) expression on, substrate in uptake buffer; d) expression off, substrate in uptake buffer. Acute uptake mediated by heterologously expressed carrier was then calculated as (c−a)−(d−b). […] Protein was measured by the BCA assay (Pierce) with bovine serum albumin as standard. […]

[3] = target: T3, SLC22A13h (Homo sapiens, UniProt Q9Y226); assay: uptake/accumulation in 293 cells expressing SLC22A13h; settings: for clearance: 1 min uptake, 0.1 μmol/l radiotracer
T3 construct: expressed in transfected cells; host or cells: 293 cells (HEK-293), pEBTetD plasmid, doxycycline-inducible
T3 sequence (Q9Y226 whole entry): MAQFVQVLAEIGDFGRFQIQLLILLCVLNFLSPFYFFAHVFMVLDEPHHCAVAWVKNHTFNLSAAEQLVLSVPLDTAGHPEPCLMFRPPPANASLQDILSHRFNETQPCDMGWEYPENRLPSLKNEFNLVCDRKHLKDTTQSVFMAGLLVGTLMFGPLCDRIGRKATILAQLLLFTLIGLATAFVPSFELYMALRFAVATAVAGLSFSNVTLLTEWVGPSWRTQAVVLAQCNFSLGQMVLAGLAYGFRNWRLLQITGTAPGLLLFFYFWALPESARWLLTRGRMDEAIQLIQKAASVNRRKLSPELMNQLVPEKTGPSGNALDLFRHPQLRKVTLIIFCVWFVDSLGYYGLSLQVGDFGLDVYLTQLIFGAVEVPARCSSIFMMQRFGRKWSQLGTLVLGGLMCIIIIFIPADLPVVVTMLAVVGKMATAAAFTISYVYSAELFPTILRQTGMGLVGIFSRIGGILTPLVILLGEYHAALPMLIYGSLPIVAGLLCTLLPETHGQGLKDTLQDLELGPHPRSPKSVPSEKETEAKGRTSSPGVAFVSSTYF
Method: as §1, §2, §3

Structure (SMILES)	clearance ([1]; sodium-free buffer) [μl min-1 mg protein-1]	clearance ([1]; standard uptake buffer)	transport of glutamate (in words) [2]	clearance [2] [μl min-1 mg protein-1]	transport of glutamate (in words) [3]	clearance [3] [μl min-1 mg protein-1]	uptake after preloading with orotic acid (factor f) [1]	factor of uptake reduction on average ([1]; sodium chloride replaced by choline, lithium or potassium chloride, or magnesium and calcium omitted)	carrier-mediated clearance ([1]; initial rate 1 min, 37° C., 10 μmol/l, LC-MS/MS, uptake buffer in the expression period) [μl min-1 mg protein-1]	accumulation of trigonelline upon carrier expression (in words) ([2]; expression of OAT1 in 293 cells, FIG. 14)	accumulation of trigonelline upon carrier expression (in words) ([3]; expression of SLC22A13 in 293 cells, FIG. 14)
N[C@@H](CCC(=O)O)C(=O)O [glutamate]	24±1	35±3 μl min-1 mg protein-1	do not transport	2.5±0.4	do not transport	0.3±0.6	–	–	–	–	–
O=C(O)c1cc(=O)[nH]c(=O)[nH]1 [orotic acid]	–	106±4 μl min-1 mg protein-1 and 106 μl min-1 mg protein-1	–	1.6±0.1	–	3.8±0.3	0.7	0.75	–	–	–
C[n+]1cccc(C(=O)[O-])c1 [trigonelline]	–	–	–	–	–	–	0.7	–	4.8±0.5	without effect	without effect
